{"source": "patent US20050026836A1", "about": "“Composition for the treatment of damaged tissue” (priority 1999, published 2005)", "key": {"[1]": {"target": "T1, MMP-13 (Homo sapiens, UniProt P45452)", "T1 construct": "made in house", "assay": "MMP-13 fluorogenic inhibition assay", "type": "biochemical", "settings": "estimated from IC50; read-out: Calculated Ki(nM) MMP-13", "method": "(§1) All enzymes were pre-activated at 37° C. with aminophenylmercuric acetate (APMA) or trypsin before being made up to the final concentrations used in the assay.\n(§2) For MMP-1, the assay buffer used was 50 mM Tris, 200 mM NaCl, 5 mM CaCl2, 20 μM ZnCl2, 0.05% (w/v) Brij 35, pH 7.5. […] For MMP-13, the assay buffer used was 50 mM Tris, pH 7.5, 200 mM NaCl, 5 mM CaCl2, […] and 0.02% (w/v) Brij 35.\nAssays were carried out in 96-well microfluor plates. All incubations were performed at 37° C. and fluorescence readings determined at 360 nm γex and 450 nm γem.\nFor the assay, the fluorescence values at time zero were subtracted from those determined at 15 or 20 minutes. The % response was then calculated by comparison to positive controls (enzyme, buffer and substrate in the absence of inhibitor). IC50 values were then determined using FitCurve (Excel Tessella Stats add-in).\n(§3) These were estimated using the following equation: IC50=(Ki*[…], where S is the substrate concentration and Km the Michaelis-Menton coefficient. Serine Protease Assays"}, "[2]": {"target": "T2, catalytic domain human MMP-1 (Homo sapiens, UniProt P03956)", "T2 construct": "made in house", "T2 sequence (P03956 100-269 limits assumed)": "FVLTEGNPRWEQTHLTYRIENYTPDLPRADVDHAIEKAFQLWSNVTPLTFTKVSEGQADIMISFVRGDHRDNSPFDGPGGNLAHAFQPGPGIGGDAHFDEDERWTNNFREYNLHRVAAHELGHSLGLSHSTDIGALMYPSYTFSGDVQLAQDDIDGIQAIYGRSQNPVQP", "assay": "MMP-1 fluorogenic inhibition assay", "type": "biochemical", "settings": "* limited by compound solubility; read-out: Calculated Ki(nM) MMP-1", "method": "as §1, §2\nThe incubation was performed at 37° C. for 60 minutes.\n(§4) For MMP-2, the final assay concentrations of inhibitors used were 1000, 800, 600, 400, 200 and 100 nM. For MMP-3, the final assay concentrations of inhibitors used were 5, 4, 3, 2, 1 and 0.5 nM. For MMP-9 and MMP-14, the final assay concentrations of inhibitors used were 5, 4, 3, 2, 1 and 0.5 μM.\n(§5) All assays were carried out in a black 96-well plate with a final volume of 100 μl in each well. Inhibitors were dissolved in dimethylsulphoxide (DMSO) to 1 mM. Solutions were then serially diluted in buffer to give the final concentrations shown.\nas §3"}, "[3]": {"target": "catalytic domain of human MMP-2 (Homo sapiens, UniProt P08253)", "sequence (P08253 with tags, fused parts or gaps DEL222-396 limits assumed)": "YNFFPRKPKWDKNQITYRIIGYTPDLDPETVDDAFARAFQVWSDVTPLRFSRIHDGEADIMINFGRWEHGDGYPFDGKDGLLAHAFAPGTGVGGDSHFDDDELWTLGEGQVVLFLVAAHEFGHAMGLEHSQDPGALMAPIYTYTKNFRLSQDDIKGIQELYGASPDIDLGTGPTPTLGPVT", "assay": "MMP-2 fluorogenic inhibition assay", "type": "biochemical", "settings": "read-out: Calculated Ki(nM) MMP-2", "method": "as §1, §2\n(§6) MMP-2, MMP-3 and MMP-9 inhibition was assayed by incubating activated catalytic domain of human MMP-2, MMP-3 and MMP-9 at 1 nM in assay buffer with 5 μM substrate Mca-Arg-Pro-Lys-Pro-Tyr-Ala-Nva-Trp-Met-Lys(Dnp)-NH2, and six different concentrations of inhibitor. The incubation was performed at 37° C. for 60 minutes.\nas §4\nAll assays were carried out in a black 96-well plate with a final volume of 100 μl in each well. Inhibitors were dissolved in dimethylsulphoxide (DMSO) to 1 mM. Solutions were then serially diluted in buffer to give the final concentrations shown. […]"}, "[4]": {"target": "T3, catalytic domain of human MMP-3 (Homo sapiens, UniProt P08254)", "T3 construct": "made in house", "T3 sequence (P08254 100-272 limits assumed)": "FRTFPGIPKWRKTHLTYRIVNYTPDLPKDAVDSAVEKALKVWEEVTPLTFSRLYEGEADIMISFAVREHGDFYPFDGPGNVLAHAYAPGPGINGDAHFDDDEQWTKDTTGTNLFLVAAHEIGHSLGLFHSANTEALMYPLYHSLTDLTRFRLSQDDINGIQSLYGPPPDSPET", "assay": "MMP-3 fluorogenic inhibition assay", "type": "biochemical", "method": "as §1, §2, §6, §4, §5, §3"}, "[5]": {"tested_on": "uPA and MMP-3", "assay": "Inhibition of uPA and MMP-3-mediated KGF-2 degradation (dual protease assay)", "type": "biochemical, human", "settings": "uPA and MMP-3 together / KGF-2; inhibitors used (100 μM), alone or in combination", "method": "The extent of proteolysis of the growth factors was assayed by incubating TGF-β2, VEGF, PDGF-BB and KGF-2 with the proteases uPA, plasmin, MMP-3 and MMP-13 in assay buffer (either uPA/plasmin buffer, 50 mM tris-HCl, pH 7.4 or MMP assay buffer, 100 mM Tris, 10 mM NaCl, 10 mM CaCl2, 0.05% (w/v) Brij 35, pH 7.5). […] The growth factors were added to the incubation mixture at a final concentration of […], unless otherwise stated.\nThe effects of uPA were determined by incubation at a typical final concentration of 25 μg/ml (1500 U/ml) with each growth factor. The effects of plasmin were determined at a typical final concentration of 0.1 mg/ml by incubation with the individual growth factors in assay buffer. MMP-3 and -13 were incubated at a typical final concentration of 10 nM with the growth factors in assay buffer. Dual protease assays carried out with uPA and MMP-3 together were performed in 100 mM Tris, […], 10 mM CaCl2, 0.05% (w/v) Brij 35, pH 7.5. All incubations were performed in siliconised tubes (Sigma Aldrich, UK).\nThe inhibitors used in these experiments were compound 9454, compound 9470 and compound 5214. These were dissolved in DMSO at a concentration of 10 mM. Typical final concentrations for these inhibitors were in the range of 100 μM to 10 nM. Aprotinin was dissolved in the Tris buffer at 10 mg/ml and used at a typical concentration of 10 μg/ml. […]"}}}
{"molecule": "COC[C@@H](NC(=O)[C@@H](NC(=O)[C@H](CCCc1ccc(-c2cccc(OC)c2)c(C)c1)CC(=O)O)C(C)(C)C)c1ccccc1", "note": "[compound 9454, (3R)-3-({[(1S)-2,2-Dimethyl-1-({[(1S)-2-methoxy-1-phenylethyl]amino}carbonyl)propyl]amino}carbonyl)-6-(3′-methoxy-2-methylbiphen-4-yl)hexanoic acid]", "values": [{"measurement": "Ki", "setting": "[1]", "value": 857, "unit": "nM"}, {"measurement": "Ki", "setting": "[2]", "value": "> 19400", "unit": "nM"}, {"measurement": "Ki", "setting": "[3]", "value": 35200, "unit": "nM"}, {"measurement": "Selectivity among MMPs (in words)", "setting": "[4]; from Ki values of Table 3 (MMP-1, -2, -3, -9, -13, -14)", "value": "selective MMP-3 inhibitor"}, {"measurement": "Ki", "setting": "[4]; read-out: Calculated Ki(nM) MMP-3", "value": 44, "unit": "nM"}, {"measurement": "Percentage inhibition of proteolysis", "setting": "[5]", "value": 16.3}]}
